In paper doi:10.1101/2020.07.29.226878v1 (bioRxiv, 2020):

Tests used:
[1] = tested on: sheep blowflies (Lucilia cuprina); experiment: In vivo insecticidal assay, intrathoracic injection into sheep blowflies
[2] = tested on: Acheta domesticus; conditions: tested in Acheta domesticus; cited from earlier work

Substance	LD50 in blow fly assays (abstract) [1]	LD50 at 24 h [2]
Δ-pseudomyrmecitoxin-Pp1a [Δ-PSDTX-Pp1a]	3 nM	–
ponericin G1	–	25.7 nmol/g
